Results on 13 compounds are retold here after PubChem BioAssay AID212 (DTP/NCI, 2004).

In the test the test system is BDF1 mice, colon carcinoma 38 sc, T/C %. Put plainly: NCI In Vivo Anticancer Drug Screen. Data for tumor model Colon Carcinoma 38 (subcutaneous) in B6D2F1 (BDF1) mice. The settings on record: endpoint: median tumor weight (est.), higher = larger tumour. The method, boiled down:
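Mice with transplanted tumors are treated with compound or vehicle. Survival or tumor size is then measured in both groups. The ratio of treated to control gives the reported figure.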

Where [1] appears, read: dose: 12.5 mg/kg/injection, schedule: Q07DX002 (ip), vehicle: saline with Tween-80.
Setting [2] is: dose: 25.0 mg/kg/injection, schedule: Q07DX002 (ip), vehicle: saline with Tween-80.
The mark [3] stands for this setting: dose: 50.0 mg/kg/injection, schedule: Q07DX002 (ip), vehicle: saline with Tween-80.
Setting [4] is: dose: 200.0 mg/kg/injection, schedule: Q07DX002 (ip), vehicle: saline with Tween-80.
The mark [5] stands for this setting: dose: 50.0 mg/kg/injection, schedule: Q07DX002 (ip), vehicle: saline.
Where [6] appears, read: dose: 50.0 mg/kg/injection, schedule: Q07DX002 (ip), vehicle: water.
Where [7] appears, read: dose: 200.0 mg/kg/injection, schedule: Q07DX002 (ip), vehicle: saline.
The mark [8] stands for this setting: dose: 100.0 mg/kg/injection, schedule: Q07DX002 (ip), vehicle: saline with Tween-80.
The mark [9] stands for this setting: dose: 400.0 mg/kg/injection, schedule: Q07DX002 (ip), vehicle: saline with Tween-80.
Where [10] appears, read: dose: 0.12 mg/kg/injection, schedule: Q07DX002 (ip), vehicle: saline.
Setting [11] is: dose: 0.25 mg/kg/injection, schedule: Q07DX002 (ip), vehicle: saline.
The mark [12] stands for this setting: dose: 1.0 mg/kg/injection, schedule: Q07DX002 (ip), vehicle: saline.

Several values for one entry are separate records, joined by “and”; a condition that tells them apart may be missing. Identical values can stand only once. Results filed as inconclusive are left out.

For the compound `Cc1ccc2c(c1)N=C(Nc1ccccc1)N=S2(C)=O` (stereo not drawn), the T/C reads like this: under setting [1], 76 % of control; under setting [2], 85 % of control; under setting [3], 82 % of control; under setting [4], 105 % of control.
`CC(C)[C@](O)(C(=O)OCC1=CCN2CC[C@@H](O)[C@@H]12)[C@H](C)O`: the T/C was 123 % of control (dose: 12.5 mg/kg/injection, schedule: Q07DX002 (ip), vehicle: suspension in saline); 76 % of control (dose: 25.0 mg/kg/injection, schedule: Q07DX002 (ip), vehicle: suspension in saline); 85 % of control under setting [5]; 74 % of control (dose: 50.0 mg/kg/injection, schedule: Q07DX002 (ip), vehicle: suspension in saline); 73 % of control under setting [6]; 56 % of control (dose: 100.0 mg/kg/injection, schedule: Q07DX002 (ip), vehicle: suspension in saline). The T/C was 184 % of control (dose: 100.0 mg/kg/injection, schedule: Q07DX002 (ip), vehicle: water); 105 % of control under setting [7]; 98 % of control (dose: 200.0 mg/kg/injection, schedule: Q07DX002 (ip), vehicle: suspension in saline); 81 % of control (dose: 400.0 mg/kg/injection, schedule: Q07DX002 (ip), vehicle: saline); 95 % of control (dose: 400.0 mg/kg/injection, schedule: Q07DX002 (ip), vehicle: suspension in saline); 52 % of control (dose: 400.0 mg/kg/injection, schedule: Q07DX002 (ip), vehicle: water).
On to `Nc1n[n+](-c2ccc(Cl)cc2)no1`, for which the T/C by setting is: (dose: 6.25 mg/kg/injection, schedule: Q07DX002 (ip), vehicle: water) 64 % of control and 78 % of control; (dose: 12.5 mg/kg/injection, schedule: Q07DX002 (ip), vehicle: water) 85 % of control and 87 % of control; (dose: 25.0 mg/kg/injection, schedule: Q07DX002 (ip), vehicle: water) 57 % of control; under setting [6], 119 % of control.
With `C1OCN2CSCC12` (stereo not drawn), the T/C is, setting by setting: under setting [2], 97 % of control; under setting [3], 67 % of control; under setting [8], 85 % of control; under setting [4], 79 % of control; under setting [9], 80 % of control.
`N#Cc1cn(C2OC(CO)C(O)C2O)c2ncnc(N)c12` (stereo not drawn): the T/C reads like this: under setting [10], 91 % of control; under setting [11], 77 % of control; under setting [12], 86 % of control; (dose: 2.0 mg/kg/injection, schedule: Q07DX002 (ip), vehicle: saline) 59 % of control.
With `CCN(CC)CCNc1ccc(C)c2sc3ccc(O)cc3c(=O)c12`, the T/C was 92 % of control under setting [2], 74 % of control under setting [3], 68 % of control under setting [8] and 33 % of control under setting [4].
As to `C=C(C)[C@@H]1CCc2c(O)c(O)c(=O)cc(C)c2C1`, the T/C was 102 % of control (dose: 25.0 mg/kg/injection, schedule: Q07DX002 (ip), vehicle: Klucel (hydroxypropylcellulose) (HPC)); 64 % of control (dose: 50.0 mg/kg/injection, schedule: Q07DX002 (ip), vehicle: Klucel (hydroxypropylcellulose) (HPC)); 85 % of control (dose: 100.0 mg/kg/injection, schedule: Q07DX002 (ip), vehicle: Klucel (hydroxypropylcellulose) (HPC)); 96 % of control (dose: 200.0 mg/kg/injection, schedule: Q07DX002 (ip), vehicle: Klucel (hydroxypropylcellulose) (HPC)); 102 % of control (dose: 400.0 mg/kg/injection, schedule: Q07DX002 (ip), vehicle: Klucel (hydroxypropylcellulose) (HPC)).
For the compound `NC(CSC(c1ccccc1)(c1ccccc1)c1ccccc1)C(=O)O` (stereo not drawn), the T/C (dose: 8.0 mg/kg/injection, schedule: Q07DX003 (ip), vehicle: Klucel (hydroxypropylcellulose) (HPC)) is 83 % of control; the T/C (dose: 8.0 mg/kg/injection, schedule: Q07DX003 (ip), vehicle: saline with Tween-80) is 78 % of control; the T/C (dose: 16.0 mg/kg/injection, schedule: Q07DX003 (ip), vehicle: Klucel (hydroxypropylcellulose) (HPC)) was 53 % of control; the T/C (dose: 16.0 mg/kg/injection, schedule: Q07DX003 (ip), vehicle: saline with Tween-80) was 61 % of control; the T/C (dose: 32.0 mg/kg/injection, schedule: Q07DX003 (ip), vehicle: Klucel (hydroxypropylcellulose) (HPC)) was 64 % of control; the T/C (dose: 32.0 mg/kg/injection, schedule: Q07DX003 (ip), vehicle: saline with Tween-80) is 57 % of control. Also, the T/C was 46 % of control (dose: 64.0 mg/kg/injection, schedule: Q07DX003 (ip), vehicle: Klucel (hydroxypropylcellulose) (HPC)); 75 % of control (dose: 64.0 mg/kg/injection, schedule: Q07DX003 (ip), vehicle: saline with Tween-80); 34 % of control (dose: 128.0 mg/kg/injection, schedule: Q07DX003 (ip), vehicle: Klucel (hydroxypropylcellulose) (HPC)); 9 % of control (dose: 128.0 mg/kg/injection, schedule: Q07DX003 (ip), vehicle: saline with Tween-80); 17 % of control (dose: 256.0 mg/kg/injection, schedule: Q07DX003 (ip), vehicle: Klucel (hydroxypropylcellulose) (HPC)).
Consider `CCCCCC#CC1OC12CCCCC2` (stereo not drawn), for which the T/C reads like this: (dose: 6.25 mg/kg/injection, schedule: Q07DX002 (ip), vehicle: saline) 17 % of control; under setting [1], 88 % of control; under setting [2], 122 % of control; (dose: 25.0 mg/kg/injection, schedule: Q07DX002 (ip), vehicle: saline) 64 % of control and 66 % of control; under setting [3], 91 % of control; under setting [5], 24 % of control. Further, the T/C is, setting by setting: under setting [8], 169 % of control; under setting [4], 103 % of control; under setting [7], 38 % of control and 41 % of control.
As for `COc1cc2cc(c1Cl)N(C)C(=O)CC(OC(=O)C(C)C)C1(C)OC1C(C)C1CC(O)(NC(=O)O1)C(OC)/C=C/C=C(C)C2` (stereo not drawn), the T/C is, setting by setting: (dose: 6.2 micrograms/kg/injection, schedule: Q07DX003 (ip), vehicle: saline + alcohol) 109 % of control; (dose: 12.5 micrograms/kg/injection, schedule: Q07DX003 (ip), vehicle: saline + alcohol) 90 % of control; (dose: 25.0 micrograms/kg/injection, schedule: Q07DX003 (ip), vehicle: saline + alcohol) 88 % of control; (dose: 50.0 micrograms/kg/injection, schedule: Q07DX003 (ip), vehicle: saline + alcohol) 79 % of control; (dose: 100.0 micrograms/kg/injection, schedule: Q07DX003 (ip), vehicle: saline + alcohol) 93 % of control.
Take `C/C=C1\C[C@@H]2C(OC)Nc3cc(O)c(OC)cc3C(=O)N2C1` (stereo partly drawn): the T/C reads like this: (dose: 0.06 mg/kg/injection, schedule: Q07DX002 (ip), vehicle: saline) 121 % of control; under setting [10], 98 % of control; (dose: 0.12 mg/kg/injection, schedule: Q07DX002 (ip), vehicle: suspension in saline) 122 % of control; under setting [11], 102 % of control; (dose: 0.25 mg/kg/injection, schedule: Q07DX002 (ip), vehicle: suspension in saline) 108 % of control; (dose: 0.5 mg/kg/injection, schedule: Q07DX002 (ip), vehicle: saline) 102 % of control. Further, the T/C is 166 % of control (dose: 0.5 mg/kg/injection, schedule: Q07DX002 (ip), vehicle: suspension in saline); 105 % of control under setting [12]; 84 % of control (dose: 1.0 mg/kg/injection, schedule: Q07DX002 (ip), vehicle: suspension in saline).
For `C[Si](C)(CCl)N[Si](C)(C)CCl`, the T/C reads like this: under setting [3], 99 % of control; under setting [8], 100 % of control; under setting [9], 150 % of control.
Consider `NC(=O)Nc1cc(NC(N)=O)cc(N(CCCl)CCCl)c1`, for which the T/C (dose: 10.0 mg/kg/injection, schedule: Q07DX002 (ip), vehicle: Klucel (hydroxypropylcellulose) (HPC)) is 89 % of control; the T/C (dose: 20.0 mg/kg/injection, schedule: Q07DX002 (ip), vehicle: Klucel (hydroxypropylcellulose) (HPC)) is 68 % of control; the T/C (dose: 40.0 mg/kg/injection, schedule: Q07DX002 (ip), vehicle: Klucel (hydroxypropylcellulose) (HPC)) is 96 % of control.
